Measured values taken from patent US9115133B2, “Substituted fused tricyclic compounds, compositions and medicinal applications thereof” (Advinus Therapeutics Limited, priority 2011, dated 2015).

Key:
[1] = molecular target: T1, Recombinant JAK1 (Amino acids 850-1154) (Homo sapiens, UniProt P23458); assay: Kinase-Glo Luminescent Kinase Assay, recombinant JAK1; assay type: biochemical; details: 200 μg/ml Poly Glu-Tyr (4:1), ATP 1 uM, 90 min room temperature, luminescence
T1 construct: Recombinant JAK1 (Amino acids 850-1154; NM_002227.2); made in house; host or cells: baculovirus expression system (Bac-to-Bac)
From the text: (§1) Recombinant JAK1 (Amino acids 850-1154; NM_002227.2), JAK2 (Amino acids 808-1132; NM_004972.3) and JAK3 (Amino acids 781-1124; NM_000215.3) used in the studies were expressed using Invitrogen's Bac-to-Bac baculovirus expression system according to manufacturer's instructions. Adenosine 5′-triphosphate was obtained from Sigma Aldrich chemicals (Cat # A7699). Poly Glu-Tyr (4:1) sodium salt was obtained from Sigma Aldrich (Cat # P0275), Kinase Glo® Luminescent Kinase assay kit was obtained from Promega (Cat # V6713) Kinase activity was assessed by Promega Kinase-Glo® Luminescent Kinase Assay kit using 200 μg/ml Poly Glu-Tyr (4:1) as substrate and ATP at 1 uM concentration. The reactions were carried out in 384 well plates in total reaction volume of 20 uL. Reaction mixtures contained 50 mM HEPES pH 7.4, 5 mM MgCl2, 1 mM DTT, 0.01% BSA, 0.01% Tween 20. Kinase was pre-incubated with compounds or 1% DMSO for 5 min before addition of substrate and ATP to check for inhibition. Kinase reactions were carried out at room temperature for 90 min. The reactions were stopped by adding 5 μl of Kinase Glo® reagent & 10 μl of reaction mixture followed by measuring luminescence. The luminescent signal is correlated with the amount of ATP present at the end of kinase reaction and is inversely correlated with the amount of kinase activity. For each data point, % inhibition is calculated based on uninhibited reaction (without compound) which is considered as 100% activity over no enzyme or substrate controls. Dose response data is then fit using a four parameter logistic equation using Graph-pad Prism 5 software to determine inhibition constant 50 (IC50).

[2] = molecular target: T2, Recombinant JAK3 (Amino acids 781-1124) (Homo sapiens, UniProt P52333); assay: Kinase-Glo Luminescent Kinase Assay, recombinant JAK3; assay type: biochemical; details: 200 μg/ml Poly Glu-Tyr (4:1), ATP 1 uM, 90 min room temperature, luminescence
T2 construct: JAK3 (Amino acids 781-1124; NM_000215.3); made in house; host or cells: baculovirus expression system (Bac-to-Bac)
From the text: as §1

T2 sequence (P52333 781-1124): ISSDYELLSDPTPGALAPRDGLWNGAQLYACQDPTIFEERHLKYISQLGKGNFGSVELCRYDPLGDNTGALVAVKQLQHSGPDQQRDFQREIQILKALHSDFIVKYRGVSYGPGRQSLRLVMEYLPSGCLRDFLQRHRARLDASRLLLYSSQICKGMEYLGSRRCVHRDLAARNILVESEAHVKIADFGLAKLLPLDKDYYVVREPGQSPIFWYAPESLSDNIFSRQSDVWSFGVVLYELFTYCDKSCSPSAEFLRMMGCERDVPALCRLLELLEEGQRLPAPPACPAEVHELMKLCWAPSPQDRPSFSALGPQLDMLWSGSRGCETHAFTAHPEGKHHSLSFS
T1 sequence (P23458 850-1154): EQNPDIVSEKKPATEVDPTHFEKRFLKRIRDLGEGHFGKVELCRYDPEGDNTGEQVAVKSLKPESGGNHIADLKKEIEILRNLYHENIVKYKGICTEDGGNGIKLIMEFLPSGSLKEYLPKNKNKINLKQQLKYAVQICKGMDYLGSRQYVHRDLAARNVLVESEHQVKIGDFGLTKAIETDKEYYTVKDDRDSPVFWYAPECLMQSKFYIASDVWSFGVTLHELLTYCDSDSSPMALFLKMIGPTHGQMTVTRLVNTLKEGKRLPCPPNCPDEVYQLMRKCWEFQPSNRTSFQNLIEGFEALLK

Structure (SMILES)	IC50 [1]	IC50 [2]
CC(C)(C)OC(=O)N1CCCC(c2ccnc3cnc4[nH]ccc4c23)C1 (stereo not drawn) [Comp. 41, tert-butyl 3-(3H-pyrrolo[3,2-f][1,7]naphthyridin-9-yl)piperidine-1-carboxylate]	1 to 20 nM	1 to 20 nM
CC(C)C(=O)N1CCC(c2ncnc3cnc4[nH]ccc4c23)C1 (stereo not drawn) [Ex. 36, 2-Methyl-1-[3-(3H-3,4,6,8-tetraaza-cyclopenta[a]naphthalen-9-yl)-pyrrolidin-1-yl]-propan-1-one]		> 20 nM
NC1CCN(c2ccnc3cnc4[nH]ccc4c23)C1 (stereo not drawn) [Comp. 125, 1-(3H-pyrrolo[3,2-f][1,7]naphthyridin-9-yl)pyrrolidin-3-amine]		> 20 nM
O=C(CC(F)(F)F)N1CCC(c2ncnc3cnc4[nH]ccc4c23)C1 (stereo not drawn) [Ex. 33, 3,3,3-Trifluoro-1-[3-(3H-3,4,6,8-tetraaza-cyclopenta[a]naphthalen-9-yl)-pyrrolidin-1-yl]-propan-1-one]		> 20 nM
CC(C)(C)OC(=O)N1CCN(c2ccnc3cnc4[nH]ccc4c23)CC1 [Comp. 127, tert-butyl 4-(3H-pyrrolo[3,2-f][1,7]naphthyridin-9-yl)piperazine-1-carboxylate]	> 20 nM	> 20 nM
c1cc(N2CCCC(N3CCOCC3)C2)c2c(cnc3[nH]ccc32)n1 (stereo not drawn) [Ex. 70, 4-[1-(3H-pyrrolo[3,2-f][1,7]naphthyridin-9-yl)-3-piperidiyl] morpholine]		> 20 nM
O=C(NC1CC1)C1CCN(c2ccnc3cnc4[nH]ccc4c23)CC1 [Ex. 76, N-cyclopropyl-1-(3H-pyrrolo[3,2-f][1,7]naphthyridin-9-yl)piperidine-4-carboxamide]	> 20 nM	> 20 nM
CC(C)C(=O)N1CCCC(c2ccnc3cnc4[nH]ccc4c23)C1 (stereo not drawn) [Ex. 3, 2-methyl-1-[3-(3H-pyrrolo[3,2-f][1,7]naphthyridin-9-yl)-1-piperidyl]propan-1-one]	> 20 nM	> 20 nM
CC(C)CC(=O)N1CCCC(c2ccnc3cnc4[nH]ccc4c23)C1 (stereo not drawn) [Ex. 5, 3-methyl-1-[3-(3H-pyrrolo[3,2-f][1,7]naphthyridin-9-yl)-1-piperidyl]butan-1-one]	1 to 20 nM	> 20 nM
N#CCC(=O)N1CC=C(c2ccnc3cnc4[nH]ccc4c23)C1 [Ex. 41, 3-oxo-3-[3-(3H-pyrrolo[3,2-f][1,7]naphthyridin-9-yl)-2,5-dihydropyrrolo-1-yl]propanenitrile]		> 20 nM
COCCNC(=O)C1CCN(c2ccnc3cnc4[nH]ccc4c23)CC1 [Ex. 77, N-(2-methoxyethyl)-1-(3H-pyrrolo[3,2-f][1,7]naphthyridin-9-yl)piperidine-4-carboxamide]	> 20 nM	> 20 nM
CC(C)(C)OC(=O)N1CCC(c2ccnc3cnc4[nH]ccc4c23)C1 (stereo not drawn) [Comp. 50, tert-butyl 3-(3H-pyrrolo[3,2-f][1,7]naphthyridin-9-yl)pyrrolidine-1-carboxylate]	1 to 20 nM	> 20 nM
O=S(=O)(C1CC1)N1CCCC(c2ccnc3cnc4[nH]ccc4c23)C1 (stereo not drawn) [Ex. 6, 9-(1-cyclopropylsulfonyl-3-piperidyl)-3H-pyrrolo[3,2-f][1,7]naphthyridine]	1 to 20 nM	1 to 20 nM
COCCNC(=O)C1CCCN(c2ccnc3cnc4[nH]ccc4c23)C1 (stereo not drawn) [Ex. 69, N-(2-methoxyethyl)-1-(3H-pyrrolo[3,2-f][1,7]naphthyridin-9-yl)piperidine-3-carboxamide]		> 20 nM
CC(C)(C)C(=O)N1CCC(c2ncnc3cnc4[nH]ccc4c23)C1 (stereo not drawn) [Ex. 38, 2,2-Dimethyl-1-[3-(3H-3,4,6,8-tetraaza-cyclopenta[a]naphthalen-9-yl)-pyrrolidin-1-yl]-propan-1-one]		> 20 nM
CN(C(=O)C1CCCC1)C1CCCN(c2ccnc3cnc4[nH]ccc4c23)C1 (stereo not drawn) [Ex. 66, N-methyl-N-[1-(3H-pyrrolo[3,2-f][1,7]naphthyridin-9-yl)-3-piperidyl]cyclopentane-carboxamide]		> 20 nM
O=C(CC(F)(F)F)N1CC=C(c2ccnc3cnc4[nH]ccc4c23)C1 [Ex. 42, 3,3,3-trifluoro-1-[3-(3H-pyrrolo[3,2-f][1,7]naphthyridin-9-yl)-2,5-dihyropyrrol-1-yl]propan-1-one]		> 20 nM
c1cc(N2CCOCC2)c2c(cnc3[nH]ccc32)n1 [Ex. 64, 4-(3H-pyrrolo[3,2-f][1,7]naphthyridin-9-yl)morpholine]		> 20 nM
O=C(CC(F)(F)F)N1CCC[C@@H](c2ccnc3cnc4[nH]ccc4c23)C1 [Ex. 4B, (S)3,3,3-trifluoro-1-[3-(3H-pyrrolo[3,2-f][1,7]naphthyridin-9-yl)-1-piperidyl]propan-1-one]		> 20 nM
O=C(C1CC1)N1CCC(c2ncnc3cnc4[nH]ccc4c23)C1 (stereo not drawn) [Ex. 35, Cyclopropyl-[3-(3H-3,4,6,8-tetraaza-cyclopenta[a]naphthalen-9-yl)-pyrrolidin-1-yl]-methanone]		> 20 nM
CCOC(=O)c1cnc2cnc3c(ccn3S(=O)(=O)c3ccc(C)cc3)c2c1O [Comp. 8, Ethyl 9-hydroxy-3-(p-tolylsulfonyl)pyrrolo[3,2-f][1,7]naphthyridine-8-carboxylate]		> 20 nM
CC(C)CS(=O)(=O)N1CCC(c2ncnc3cnc4[nH]ccc4c23)C1 (stereo not drawn) [Ex. 40, 9-[1-(2-Methyl-propane-1-sulfonyl)-pyrrolidin-3-yl]-3H-3,4,6,8-tetraaza-cyclopenta[a]naphthalene]		> 20 nM
O=C(CCC(F)(F)F)N1CCC(c2ncnc3cnc4[nH]ccc4c23)C1 (stereo not drawn) [Ex. 37, 4,4,4-Trifluoro-1-[3-(3H-3,4,6,8-tetraaza-cyclopenta[a]naphthalen-9-yl)-pyrrolidin-1-yl]-butan-1-one]		> 20 nM
N#CCC(=O)N1CCC(c2ncnc3cnc4[nH]ccc4c23)C1 (stereo not drawn) [Ex. 34, 3-Oxo-3-[3-(3H-3,4,6,8-tetraaza-cyclopenta[a]naphthalen-9-yl)-pyrrolidin-1-yl]-propionitrile]		> 20 nM

Now from value to compound:

IC50 [1]	IC50 [2]	Structure (SMILES)
	> 20 nM	CC(C)CS(=O)(=O)NC1CCN(c2ccnc3cnc4[nH]ccc4c23)C1 (stereo not drawn) [Ex. 93, 2-methyl-N-[1-(3H-pyrrolo[3,2-f][1,7]naphthyridin-9-yl)pyrrolidin-3-yl]propane-1-sulfonamide]
> 20 nM	> 20 nM	O=C(NCC(F)(F)F)C1CCN(c2ccnc3cnc4[nH]ccc4c23)CC1 [Ex. 78, 1-(3H-pyrrolo[3,2-f][1,7]naphthyridin-9-yl)-N-(2,2,2-trifluoroethyl)piperidine-4-carboxamide]
	> 20 nM	O=C(CC1CC1)NC1CCN(c2ccnc3cnc4[nH]ccc4c23)C1 (stereo not drawn) [Ex. 98, 2-cyclopropyl-N-[1-(3H-pyrrolo[3,2-f][1,7]naphthyridin-9-yl)pyrrolidin-3-yl]acetamide]
	1 to 20 nM	N#CCS(=O)(=O)NC1CCN(c2ccnc3cnc4[nH]ccc4c23)C1 (stereo not drawn) [Ex. 94, 1-cyano-N-[1-(3H-pyrrolo[3,2-f][1,7]naphthyridin-9-yl)pyrrolidin-3-yl]methanesulfonamide]
> 20 nM	> 20 nM	O=C(CC(F)(F)F)N1CCN(c2ccnc3cnc4[nH]ccc4c23)CC1 [Ex. 103, 3,3,3-trifluoro-1-[4-(3H-pyrrolo[3,2-f][1,7]naphthyridin-9-yl)piperazin-1-yl]propan-1-one]
	> 20 nM	O=C(NC1CCN(c2ccnc3cnc4[nH]ccc4c23)C1)C1CC1 (stereo not drawn) [Ex. 96, N-[1-(3H-pyrrolo[3,2-f][1,7]naphthyridin-9-yl)pyrrolidin-3-yl]cyclopropanecarbox-amide]
	> 20 nM	CC(C)C(=O)NC1CCN(c2ccnc3cnc4[nH]ccc4c23)C1 (stereo not drawn) [Ex. 97, 2-methyl-N-[1-(3H-pyrrolo[3,2-f][1,7]naphthyridin-9-yl)pyrrolidin-3-yl]propanamide]
	> 20 nM	N#CCC(=O)NC1CCN(c2ccnc3cnc4[nH]ccc4c23)C1 (stereo not drawn) [Ex. 99, 2-cyano-N-[1-(3H-pyrrolo[3,2-f][1,7]naphthyridin-9-yl)pyrrolidin-3-yl]acetamide]
	> 20 nM	CC(C)NC(=O)NC1CCN(c2ccnc3cnc4[nH]ccc4c23)C1 (stereo not drawn) [Ex. 95, 1-isopropyl-3-[1-(3H-pyrrolo[3,2-f][1,7]naphthyridin-9-yl)pyrrolidin-3-yl]urea]
	1 to 20 nM	CS(=O)(=O)NC1CCN(c2ccnc3cnc4[nH]ccc4c23)C1 (stereo not drawn) [Ex. 101, N-[1-(3H-pyrrolo[3,2-f][1,7]naphthyridin-9-yl)pyrrolidin-3-yl]methanesulfonamide]
	1 to 20 nM	O=C(CC(F)(F)F)NC1CCN(c2ccnc3cnc4[nH]ccc4c23)C1 (stereo not drawn) [Ex. 100, 3,3,3-trifluoro-N-[1-(3H-pyrrolo[3,2-f][1,7]naphthyridin-9-yl)pyrrolidin-3-yl]propanamide]
